In US20090068290A1, “BIFEPRUNOX DOSES FOR TREATING SCHIZOPHRENIA” (priority 2006, published 2009):

Tests used:
Format in all cases: in vivo, human
[1] = tested on: adult subjects with schizophrenia; assay: PANSS positive subscale score, Clinical Study One; settings: Risperidone 6 mg, ITT
Experimental: (§1) There were five treatment groups in this study. […] Study medication was administered once daily. After Baseline measurements were performed, the titration phase was begun. Bifeprunox treated subjects were titrated up to 5 mg, 10 mg or 20 mg according to a standardized titration schedule (Day 1: 0.125 mg, Day 2: 0.25 mg, Day 3: 0.5 mg, Day 4: 1.0 mg, Day 5: 2.0 mg, Day 6: 5.0 mg, Day 7: 10.0 mg, Day 8: 20 mg). When the assigned dose was reached, subjects were maintained at that dose for the remainder of the six-week treatment period.
The change in the Positive and Negative Symptom Scale (PANSS) total score, from baseline to endpoint, was the primary outcome measure. Secondary efficacy measures included: PANSS positive, PANSS negative, PANSS general psychopathology (GPP) score, PANSS-derived Brief Psychiatric Rating Scale (BPRS) score, Clinical Global Impressions-Severity of Illness (CGI-S), CGI-Improvement (CGI-I) scores, and responder rates. Safety and tolerability evaluations included extrapyramidal symptoms (EPS), weight gain, lipid profile, and serum prolactin.

[2] = tested on: adult subjects with schizophrenia; assay: PANSS general psychopathology subscale score, Clinical Study Two; settings: LOCF; for Change from Baseline in General Psychopathology Subscale Score, Mean (SD) / Change from Baseline in General Psychopathology Subscale Score, Median: Risperidone 6 mg, ITT population
Experimental: Rating scale assessments were performed weekly, except for week 5, to measure the change from baseline to endpoint of the PANSS total score. Other assessments included: PANSS positive symptom subscale score, PANSS negative symptom subscale score, PANSS general pschopathology subscale score, BPRS total score, BPRS psychosis score, the CGI-S score, the CGI-I score, responder rates based on the PANSS total score, and the Calgary Depression Scale for Schizophrenia (CDSS). […]
Subjects who completed this study had the option to continue in the long-term. […] Risperidone-treated subjects were titrated from 2 mg to 6 mg daily over a three-day period and were subsequently maintained at 6 mg/day for the remainder of the treatment period. […] Blood samples were also obtained at Screening/Baseline, Week 3, and Week 6 for clinical laboratory assessments.

[3] = tested on: adult subjects with schizophrenia; assay: CGI responder rate, Clinical Study One; settings: 6 mg
Experimental: as §1
CLINICAL STUDY ONE: A CGI responder is defined as a subject who is categorized as “very much improved” or “much improved” on the CGI Improvement scale.

[4] = tested on: adult subjects with schizophrenia; assay: PANSS positive symptom subscale score, Clinical Study Three; settings: Olanzapine 15 mg, LOCF, ITT
Text: (§2) SECONDARY OBJECTIVES To assess the efficacy of bifeprunox in treating schizophrenia using the Positive Symptom sub-scale score of the PANSS, the Negative Symptom sub-scale score of the PANSS, the General Psychopathology sub-scale of the PANSS, Brief Psychiatric Rating Scale (BPRS) total score derived from the PANSS, BPRS psychosis score derived from the PANSS, the Clinical Global Impression Severity of Illness score (CGI-S), the Clinical Global Impression Improvement score (CGI-I), CGI-I responder rate, PANSS responder rate based on the PANSS total score, Calgary Depression Scale for Schizophrenia (CDSS), and Subject Satisfaction rating.
(§3) There were four treatment arms in this study, approximately 144 subjects per arm. […] After completing the Single-Blind Placebo Lead-in Period of at least three days, bifeprunox-treated subjects were titrated from 0.25 mg up to 20 mg/day or 30 mg/day according to a standardized titration scheme over a seven- or eight-day period, respectively. When the assigned dose was reached, subjects were maintained at that dose for the remainder of the six week treatment period. […] Subjects were hospitalized (if not already inpatients) after eligibility for study entry was verified, starting from the Screening Visit until at least 10 days after Baseline. Subjects could be hospitalized longer than 10 days if considered medically necessary by the Investigator. Rating scale assessments for efficacy and abnormal movement disorders were done weekly except for Week 5. […] Subject satisfaction with study medication was assessed at Week 6.

[5] = tested on: adult subjects with schizophrenia; assay: BPRS total score, Clinical Study Three; settings: LOCF; for Change from Baseline in BPRS Total Score, Mean (SD) / Change from Baseline in BPRS Total Score, Median: Olanzapine 15 mg, ITT population
Text: as §2, §3

[6] = tested on: adult subjects with schizophrenia; assay: CGI responder rate, Clinical Study Three; settings: LOCF
Text: CLINICAL STUDY THREE: A CGI responder is defined as a subject who is categorized as “very much improved” or “much improved” on the CGI Improvement scale. […] No notable differences were observed between the placebo group and either of the two bifeprunox dose groups.

Cc1nc2n(c(=O)c1CCN1CCC(c3noc4cc(F)ccc34)CC1)CCCC2 [Risperidone, risperidone, reference compound]
Change from Baseline in PANSS Positive Subscale Score, Mean (S.D.) ([1]; Endpoint LOCF): −5.3 (4.8) | Change from Baseline in PANSS Positive Subscale Score, Median ([1]; Endpoint LOCF): −5 | Change from Baseline in PANSS Positive Subscale Score, Mean (S.D.) ([1]; Week 1, LOCF): −2.7 (3.4) | Change from Baseline in PANSS Positive Subscale Score, Median ([1]; Week 1, LOCF): −2 | Change from Baseline in PANSS Positive Subscale Score, Mean (S.D.) ([1]; Week 2, LOCF): −4.3 (4.2) | Change from Baseline in PANSS Positive Subscale Score, Median ([1]; Week 2, LOCF): −4 | Change from Baseline in PANSS Positive Subscale Score, Mean (S.D.) ([1]; Week 3, LOCF): −5.0 (4.6) | Change from Baseline in PANSS Positive Subscale Score, Median ([1]; Week 3, LOCF): −5 | Change from Baseline in PANSS Positive Subscale Score, Mean (S.D.) ([1]; Week 4, LOCF): −4.9 (4.6) | Change from Baseline in PANSS Positive Subscale Score, Median ([1]; Week 4, LOCF): −4 | Change from Baseline in General Psychopathology Subscale Score, Mean (SD) ([2]; Week 1): −3.9 (5.6) | Change from Baseline in General Psychopathology Subscale Score, Median ([2]; Week 1): −4 | Change from Baseline in General Psychopathology Subscale Score, Mean (SD) ([2]; Week 2): −6.7 (7.3) | Change from Baseline in General Psychopathology Subscale Score, Median ([2]; Week 2): −6 | Change from Baseline in General Psychopathology Subscale Score, Mean (SD) ([2]; Week 3): −7.6 (7.7) | Change from Baseline in General Psychopathology Subscale Score, Median ([2]; Week 3): −8 | Change from Baseline in General Psychopathology Subscale Score, Mean (SD) ([2]; Week 4): −8.4 (8.5) | Change from Baseline in General Psychopathology Subscale Score, Median ([2]; Week 4): −9 | Change from Baseline in General Psychopathology Subscale Score, Mean (SD) ([2]; Week 6/Endpoint): −8.6 (9.8) | Change from Baseline in General Psychopathology Subscale Score, Median ([2]; Week 6/Endpoint): −9 | mean change (SD) from Baseline to Endpoint in PANSS general psychopathology subscale score ([2]; risperidone 6 mg, ITT): −8.6 (9.8) | CGI Responder at Endpoint (LOCF), % [3]: 36%

Cc1cc2c(s1)Nc1ccccc1N=C2N1CCN(C)CC1 [Olanzapine, olanzapine, reference compound]
Change from Baseline in PANSS Positive Symptom Subscale Score, Mean (SD) ([4]; Week 1): −3.0 (3.3) | Change from Baseline in PANSS Positive Symptom Subscale Score, Median ([4]; Week 1): −2 | Change from Baseline in PANSS Positive Symptom Subscale Score, Mean (SD) ([4]; Week 2): −4.9 (4.0) | Change from Baseline in PANSS Positive Symptom Subscale Score, Median ([4]; Week 2): −5 | Change from Baseline in PANSS Positive Symptom Subscale Score, Mean (SD) ([4]; Week 3): −6.0 (4.9) | Change from Baseline in PANSS Positive Symptom Subscale Score, Median ([4]; Week 3): −6 | Change from Baseline in PANSS Positive Symptom Subscale Score, Mean (SD) ([4]; Week 4): −6.4 (5.4) | Change from Baseline in PANSS Positive Symptom Subscale Score, Median ([4]; Week 4): −7 | Change from Baseline in PANSS Positive Symptom Subscale Score, Mean (SD) ([4]; Week 6/Endpoint): −7.0 (5.8) | Change from Baseline in PANSS Positive Symptom Subscale Score, Median ([4]; Week 6/Endpoint): −7 | Change from Baseline in BPRS Total Score, Mean (SD) ([5]; Week 1): −5.6 (6.7) | Change from Baseline in BPRS Total Score, Median ([5]; Week 1): −4 | Change from Baseline in BPRS Total Score, Mean (SD) ([5]; Week 2): −8.9 (8.2) | Change from Baseline in BPRS Total Score, Median ([5]; Week 2): −8 | Change from Baseline in BPRS Total Score, Mean (SD) ([5]; Week 3): −11.4 (9.3) | Change from Baseline in BPRS Total Score, Median ([5]; Week 3): −11 | Change from Baseline in BPRS Total Score, Mean (SD) ([5]; Week 4): −12.0 (9.8) | Change from Baseline in BPRS Total Score, Median ([5]; Week 4): −11 | Change from Baseline in BPRS Total Score, Mean (SD) ([5]; Week 6/Endpoint): −13.2 (10.7) | Change from Baseline in BPRS Total Score, Median ([5]; Week 6/Endpoint): −12 | mean change (SD) from Baseline to Endpoint in BPRS total score ([5]; olanzapine 15 mg, ITT): −13.2 (10.7) | CGI Responder No, % ([6]; 15 mg, Week 6/Endpoint): 54% | CGI Responder Yes, % ([6]; 15 mg, Week 6/Endpoint): 46% | CGI-I responder rate (subjects much or very much improved) at Endpoint ([6]; olanzapine 15 mg): 46%
